Counter-ions that a name gives are not always drawn.
Columns and labels:
[1] = system: CFA-hyperalgesia (CFA-HA); experiment: Antihyperalgesic effect in the chronic inflammation pain model (Complete Freund's Adjuvant, electronic von Frey); assay type: in vivo, Sprague Dawley rats
Description: The test to determine the antihyperalgesic effect of axomadol in chronic inflammation pain was conducted on rats in the Complete Freund's Adjuvant animal model (CFA).
A model for chronic inflammation represents the monoarthritis triggered by the Complete Freund's Adjuvant (CFA). By injecting a small quantity of CFA (100 μg M. tuberculosis) into the back paw a local inflammatory reaction restricted in time to 2-4 weeks occurred.
Sprague Dawley rats from a commercial breeder (Janvier, Belgium) having a weight of 140-160 g were used as test animals. The CFA-HA was induced in rats by subplantar injection of CFA (100 μl of the 1 mg/ml mycobacteria (heat-killed M. tuberculosis)/oil suspension (IFA; Difco)) into the back paw (ipsilaterally). The injection day was defined as day 0 (d 0).
Hyperalgesia to a mechanical tactile stimulus was detected by means of an electronic von Frey measuring instrument (Somedic Electronic von Frey System, Somedic Sales AB, Horby, Sweden). The paw was stimulated by subplantar application. To quantify the sensitivity of both the ipsi- and the contralateral paw to the mechanical stimulus, the paw pull-away threshold was given in grams of applied pressure. The median was formed from the four measured values per paw. The pull-away threshold of the ipsi- and contralateral paw was determined on day 1 after CFA injection before (=initial value) and at different times (15, 20 and 60 minutes) after substance dose (measured value). The efficacy of a substance was calculated as % inhibition of hyperalgesia as follows:
% inhibition of HA=(1−HA measured value/HA initial value)×100
HA initial value=pull away threshold contralateral−pull away threshold ipsilateral before substance dose
HA measured value=pull away threshold contralateral−pull away threshold ipsilateral after substance dose
In total, 10 rats were used in each test animal group. The mean±SEM was calculated from the medians of the individual animals. The significance calculation was conducted using the two-factor analysis of the variance (ANOVA) for repeated measurements. In the case of a significant treatment effect, a comparison in pairs was conducted at different measurement times by a Fisher's significance test, followed by a post hoc Dunnett test. The results were assessed as statistically significant at p<0.05.
In order to determine the maximum efficacy, the substance was administered intravenously (IV) up to the maximum possible dose.

[2] = system: moderate to severe chronic pain as a result of osteoarthritis (OA) of the knee; experiment: Clinical Study B: axomadol vs oxycodone CR and placebo, 4 weeks, patients with OA of the knee; assay type: in vivo; settings: for p of primary endpoint compared to the placebo group: per protocol set
Description: In this study, patients with OA of the knee were divided into 4 groups. Two of the patient groups received different doses of axomadol hydrochloride: 100 mg and 150 mg based on the free base, twice daily in each case after a titration period of 2 weeks, in which the dose of axomadol was increased on a weekly basis. […] A further group was given a placebo twice daily.

[3] = system: moderate to severe chronic pain as a result of osteoarthritis (OA) of the hip or knee; experiment: Clinical Study A: axomadol vs tramadol and placebo, 4 weeks, patients with OA of the hip or knee; assay type: in vivo; settings: for Decrease in pain intensity compared to baseline: full analysis set, day 29, axomadol 44, 66, 110 mg bid, tramadol 100 mg bid
Description: (§1) Two studies with a respective treatment period of 4 weeks were conducted to determine the efficacy and safety of axomadol in patients with moderate to severe chronic pain as a result of osteoarthritis (arthrosis, OA) of functional class I-III.
In this study, patients with OA of the hip or knee were divided into 5 groups.

[4] = system: moderate to severe chronic pain as a result of osteoarthritis (arthrosis, OA) of functional class I-III; experiment: Both clinical studies (A and B), statements made for both; assay type: in vivo, patients; settings: after 4 weeks
Description: as §1

## COc1ccc2c3c1O[C@H]1C(=O)CC[C@@]4(O)[C@@H](C2)N(C)CC[C@]314 [Oxycodone]
[1]; rat, IV
  Dose from which overlap with antinociceptive effect (comparators: also side-effects that impair measurement): From 0.681 mg/kg: overlap with antinociceptive
[1]; rat, IV, dose 0.215 mg/kg
  % Inhibition of HA: 18%
[1]; rat, IV, dose 0.681 mg/kg
  % Inhibition of HA: 26%
[2]; oxycodone CR 20 mg twice daily group
  p of primary endpoint compared to the placebo group: 0.0154

## CN1CC[C@]23c4c5ccc(O)c4O[C@H]2[C@@H](O)C=C[C@H]3[C@H]1C5 [Morphine]
[1]; rat, IV
  Dose from which overlap with antinociceptive effect (comparators: also side-effects that impair measurement): From 4.64 mg/kg: overlap with antinociceptive
[1]; rat, IV, dose 0.46 mg/kg
  % Inhibition of HA: 8%
[1]; rat, IV, dose 1.00 mg/kg
  % Inhibition of HA: 20%
[1]; rat, IV, dose 2.15 mg/kg
  % Inhibition of HA: 27%

## COc1cccc([C@@]2(O)C[C@H](O)CC[C@@H]2CN(C)C)c1 (racemic) [Axomadol, (1RS,3RS,6RS)-6-dimethylaminomethyl-1-(3-methoxyphenyl)-cyclohexane-1,3-diol]
[1]; chronic inflammation pain model
  Analgesic efficacy compared to morphine, oxycodone and tramadol (in words): better analgesic efficacy
[1]; rat
  Effect on CFA-induced hyperalgesia (in words): significantly reduces
[3]
  Decrease in pain intensity compared to baseline: clinically relevant decrease in pain intensity
[3]; per protocol set, 110 mg twice daily
  p of decrease in pain intensity compared to the placebo group: < 0.05
[3]; per protocol set, axomadol 44, 66, 110 mg twice daily
  Decrease in pain intensity, dose dependence: higher efficacy at the higher dose
[2]; 100 mg group
  Frequency of undesirable side-effects which caused patients to discontinue the study: 16.3%
[2]; 150 mg group
  Frequency of undesirable side-effects which caused patients to discontinue the study: 17.7%
[2]; axomadol groups 100 mg and 150 mg twice daily
  Severity of undesirable effects: slight to moderate
[2]; full analysis set, 100 mg twice daily
  p of average pain intensity of the last 24 hours on day 29 compared to the placebo: 0.0190
[2]; 100 mg twice daily group
  p of primary endpoint compared to the placebo group: 0.0068
[2]; 150 mg twice daily group
  p of primary endpoint compared to the placebo group: 0.0079
[4]
  Decrease in pain intensity: clinically significant decrease in pain intensity

## COc1cccc([C@@]2(O)C[C@H](O)CC[C@@H]2CN(C)C)c1 (racemic) [Axomadol-HCl, (1RS,3RS,6RS)-6-dimethylaminomethyl-1-(3-methoxyphenyl)-cyclohexane-1,3-diol]
[1]; rat, IV
  Dose from which overlap with antinociceptive effect (comparators: also side-effects that impair measurement): From 14.7 mg/kg: overlap with antinociceptive
[1]; rat, IV, dose 2.15 mg/kg
  % Inhibition of HA: 16%
[1]; rat, IV, dose 10.0 mg/kg
  % Inhibition of HA: 40%
[1]; rat, IV, dose 14.7 mg/kg
  % Inhibition of HA: 9%
[1]; rat, IV, doses higher than 10 mg/kg
  Antihyperalgesic effect at higher doses: 9%
[3]; 110 mg twice daily
  Instance of the most frequent undesirable effects vs every other treatment group: higher

## COc1cccc(C2(O)CCCCC2CN(C)C)c1 (stereo not shown) [Tramadol, reference compound]
[1]; rat, IV
  Dose from which overlap with antinociceptive effect (comparators: also side-effects that impair measurement): From 4.64 mg/kg: overlap with antinociceptive
[3]
  Decrease in pain intensity compared to baseline: not observed
